Results: US20110105392A1 (ELI LILLY AND COMPANY, priority 2008, published 2011)

Columns and labels:
healthy volunteers = test: Euglycaemic glucose clamp after single SC dose in healthy volunteers; type: in vivo, human
Method: In all treatment periods, subjects undergo a euglycaemic clamp procedure for up to 24/36 hours following each insulin compound injection. Glucose infusion rates (GIR) are adjusted to maintain euglycaemia, with the documented GIR over time providing the GD measure of insulin action. The aim of the euglycaemic glucose clamp is to maintain euglycaemia through glucose infusion after the administration of a dose of an insulin compound. It is assumed that endogenous insulin secretion and hepatic glucose output are minimal and that any glucose that is translocated out of the glucose space (i.e., glucose metabolised) is the direct consequence of the administered exogenous insulin. The GIR in this case will be the glucodynamic (GD) measure of the insulin action over time. All glucose clamp studies are performed after an overnight fast of approximately 8 hours. On the morning of the study, a small catheter is placed into a vein of one arm, ideally in the ante-cubital fossa, for administration of 20% dextrose solution (buffered to near neutral pH) under the control of a volumetric pump. Another catheter is placed, ideally in the wrist or hand for venous glucose sampling. This area is heated with a warming device to approximately 55-60° C. for sampling arterialized venous blood. Blood samples are obtained at the bedside for immediate determination of whole blood glucose concentrations using an automated glucose oxidase technique. After basal blood sampling and a stabilization period of approximately 30 minutes, each subject receives a dose of insulin compound administered subcutaneously. The start of the subcutaneous injection of an insulin compound is defined as time zero. Following completion of dosing, in conjunction with frequent blood sampling for measurement of blood glucose, glucose is infused intravenously at a variable rate in order to maintain euglycaemia for up to 24 or 36 hours after insulin administration.
Blood sampling occurs approximately every 10 minutes for approximately 30 minutes prior to dosing and continued every 5-10 minutes for the first 2 hours after dosing (with the option to sample as frequently as every 2.5 minutes), and then reduced to 10-30 minute intervals up to the end of clamp.
During the glucose clamp, the glucose infusion rate is adjusted to maintain a pre-determined target blood glucose concentration for the individual subject. Preferably, the target concentration is close to the fasting blood glucose. The aim of the glucose clamp procedure is to maintain the blood glucose concentrations within +5% of the pre-dose target value, which is defined as 5 mg/dL below the mean fasting blood glucose. Thus, blood glucose concentrations are kept constant while the GIR varied. […]

[1] = calculated from published PK profiles; cited from earlier work

Row | Substance | time GD maintained (healthy volunteers; Part C, 0.5 mg/kg SC) | GIR profile versus peak GIR response for glargine (healthy volunteers; Part C, 0.5 mg/kg SC, glargine 0.5 U/kg) | within subject variability in the glucodynamics (healthy volunteers; humans) | duration of action (healthy volunteers; humans, versus insulin glargine (FIG. 2)) | peak-trough (PT) ratio [1]
1 | LY: 20 kDa PEGylated insulin lispro, about 95% or more at B28, prepared essentially as in Example 9 | greater than 36 hours | exceeded the peak GIR response for glargine | less than 30% | longer than that of insulin glargine | 
2 | insulin glargine |  |  |  |  | 1.2-2.6
